Consider twelve compounds from patent US20260146035A1, “FUSED BICYCLIC COMPOUNDS AND THEIR USE AS MER AND AXL INHIBITORS” (DONG-A ST CO., LTD., priority 2022, published 2026).

Like-named read-outs stand apart in the source and are kept apart here. Bounds are passed on as bounds.

One assay addresses T1, human AXL (473-end) (Homo sapiens, UniProt P30530).
T1 construct: human AXL (473-end); purchased SignalChem, Canada
T1 sequence (P30530 473-894 limits assumed): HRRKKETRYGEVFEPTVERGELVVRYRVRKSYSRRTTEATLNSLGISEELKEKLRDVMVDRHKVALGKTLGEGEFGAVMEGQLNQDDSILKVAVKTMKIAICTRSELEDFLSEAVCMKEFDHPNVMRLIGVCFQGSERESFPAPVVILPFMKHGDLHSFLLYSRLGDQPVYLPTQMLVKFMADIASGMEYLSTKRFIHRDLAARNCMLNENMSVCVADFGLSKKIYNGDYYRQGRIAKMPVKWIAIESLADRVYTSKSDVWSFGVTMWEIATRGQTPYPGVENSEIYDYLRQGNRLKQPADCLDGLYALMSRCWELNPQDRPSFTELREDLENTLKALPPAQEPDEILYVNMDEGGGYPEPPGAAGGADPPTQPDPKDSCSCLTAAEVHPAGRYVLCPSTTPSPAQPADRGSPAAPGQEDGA
The assay can be described thus: HTRF kinase activity biochemical assay, AXL. (In general: Time-resolved FRET reads energy transfer from a long-lived donor to a nearby acceptor.)

For the next assay, the target named is T2, human MER (528-end) (Homo sapiens, UniProt Q12866).
T2 construct: human MER (528-end); purchased Camnabio, Japan
T2 sequence (Q12866 528-999 limits assumed): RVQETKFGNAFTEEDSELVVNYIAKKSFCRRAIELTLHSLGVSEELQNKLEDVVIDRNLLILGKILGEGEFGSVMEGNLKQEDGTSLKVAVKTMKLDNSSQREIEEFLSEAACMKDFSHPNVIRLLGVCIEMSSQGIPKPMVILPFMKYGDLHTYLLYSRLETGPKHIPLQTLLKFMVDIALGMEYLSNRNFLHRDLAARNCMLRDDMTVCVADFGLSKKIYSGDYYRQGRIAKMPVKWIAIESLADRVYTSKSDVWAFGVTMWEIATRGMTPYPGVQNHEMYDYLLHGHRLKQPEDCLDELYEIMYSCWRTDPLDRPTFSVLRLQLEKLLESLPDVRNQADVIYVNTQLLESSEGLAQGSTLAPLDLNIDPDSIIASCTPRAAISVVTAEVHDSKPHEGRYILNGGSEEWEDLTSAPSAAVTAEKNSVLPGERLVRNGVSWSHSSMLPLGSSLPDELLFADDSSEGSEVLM
The assay can be described thus: HTRF kinase activity biochemical assay, MER.

A further assay concerns the target T3, human TYRO3 (455-end) (Homo sapiens, UniProt Q06418).
T3 construct: TYRO3 (455-end); purchased SignalChem, Canada
T3 sequence (Q06418 455-890 limits assumed): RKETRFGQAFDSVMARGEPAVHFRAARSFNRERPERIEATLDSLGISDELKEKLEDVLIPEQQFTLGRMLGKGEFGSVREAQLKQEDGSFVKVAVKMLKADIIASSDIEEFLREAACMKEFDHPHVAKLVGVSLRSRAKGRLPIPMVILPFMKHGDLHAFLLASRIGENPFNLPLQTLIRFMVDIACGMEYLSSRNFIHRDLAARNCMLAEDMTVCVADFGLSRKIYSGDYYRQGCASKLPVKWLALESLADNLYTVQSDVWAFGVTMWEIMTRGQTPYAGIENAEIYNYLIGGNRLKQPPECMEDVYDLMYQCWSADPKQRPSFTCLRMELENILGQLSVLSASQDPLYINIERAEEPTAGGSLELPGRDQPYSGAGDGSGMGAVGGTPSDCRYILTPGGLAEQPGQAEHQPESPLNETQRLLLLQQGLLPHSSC
The assay can be described thus: HTRF kinase activity biochemical assay, TYRO3. The conditions noted are these: 10 μM ATP, 30 minutes pre-incubation; read-out: HTRF TYRO IC50.

Assay [1] concerns phospho-MerTK in BaF3.MerTK tumors. The assay can be described thus: In vivo Ba/F3 pMER ALISA assay. The conditions noted are these: orally; for % inhibition: 50 milligrams per kilogram, single dose, tumors harvested 4 hours after, phospho-MerTK normalized to total MerTK.
Procedure: BaF3.MerTK tumor cells were mixed with 50% Matrigel (BD, Franklin Lakes, NJ). […] Tumors were allocated into dose groups at 10 to 11 days post tumor cell inoculation, when they were roughly 250-400 mm^3 in size. Test compounds were formulated in 10% ethanol, 30% PEG-400, and 60% Phosal-50PG, for oral dosing at 0.2 mL per dose per mouse. Plasma and tumors were harvested 4 hours after a single dose. Ba/F3 tumors were harvested into 2 mL Precellys CKmix tubes, snap frozen in liquid nitrogen, and stored at −80° C. overnight. […] Precellys tubes were then centrifuged at >18,000 g for 20 minutes at 4° C. and the supernatant was collected on ice. The lysate was then centrifuged again at >18,000 g for 10 minutes at 4° C. to remove any residual debris. […] Plates were then frozen at −80° C. overnight.
The mark [2] stands for this setting: 10 μM ATP, 30 minutes pre-incubation.
Setting [3] is: 10 μM ATP, 30 minutes pre-incubation, read-out: HTRF MERTK IC50.

The term IC50 denotes the concentration that inhibits the measured activity by half. Usually % inhibition stands for the drop in the measured response relative to a control, in per cent. As to `Cn1cc(-c2cnc(N)c(C(=O)N[C@H]3CCC[C@@H]3OCc3ccc(-c4ccc5c(c4)CC[C@@H]5N4CCN5C[C@H](O)C[C@H]5C4)cc3)c2)cn1` [Example 161, 2-amino-N-{(1S,2S)-2-[(4-{(1S)-1-[(7R,8aS)-7-hydroxyhexahydropyrrolo[1,2-a]pyrazin-2 (1H)-yl]-2,3-dihydro-1H-inden-5-yl}phenyl)methoxy]cyclopentyl}-5-(1-methyl-1H-pyrazol-4-yl)pyridine-3-carboxamide], the IC50 against human AXL (473-end) (setting [2]) is below 10 nM; at human MER (528-end) (setting [3]), below 10 nM; on human TYRO3 (455-end), 10 to 100 nM. For the same compound, the “% inhibition” value in assay [1] was determined as 85%.

Turning to `Cn1cc(-c2cnc(N)c(C(=O)N[C@H]3CCC[C@@H]3OCc3ccc(-c4ccc5c(c4)CCC[C@@H]5N4CCN(C[C@H](O)CO)CC4)cc3)c2)cn1` [Example 171, 2-amino-N-[(1S,2S)-2-({4-[(5S)-5-{4-[(2S)-2,3-dihydroxypropyl]piperazin-1-yl}-5,6,7,8-tetrahydronaphthalen-2-yl]phenyl}methoxy)cyclopentyl]-5-(1-methyl-1H-pyrazol-4-yl)pyridine-3-carboxamide], the IC50 was below 10 nM on human AXL (473-end) (setting [2]), below 10 nM on human MER (528-end) (setting [3]) and 10 to 100 nM on human TYRO3 (455-end). Besides, the “% inhibition” value in assay [1] was 94%.

On to `CC1(C)C[C@H](N2CCN(C[C@H](O)CO)CC2)c2ccc(-c3ccc(CO[C@H]4CCC[C@@H]4NC(=O)c4cc(-c5cccnc5F)cnc4N)cc3)cc21` [Example 168, 6-amino-N-[(1S,2S)-2-({4-[(1S)-1-{4-[(2S)-2,3-dihydroxypropyl]piperazin-1-yl}-3,3-dimethyl-2,3-dihydro-1H-inden-5-yl]phenyl}methoxy)cyclopentyl]-2′-fluoro[3,3′-bipyridine]-5-carboxamide], for which the IC50 against human AXL (473-end) (setting [2]) is below 10 nM; at human MER (528-end) (setting [3]), below 10 nM; on human TYRO3 (455-end), 10 to 100 nM. For the same compound, the “% inhibition” value in assay [1] was 74%.

For the compound `Cn1cc(-c2cnc(N)c(C(=O)N[C@H]3CCC[C@@H]3OCc3ccc(-c4ccc5c(c4)C(C)(C)CC5N4CCN(CCO)CC4)cc3)c2)cn1` (stereo partly drawn) [Example 83, 2-amino-N-{(1S,2S)-2-[(4-{1-[4-(2-hydroxyethyl)piperazin-1-yl]-3,3-dimethyl-2,3-dihydro-1H-inden-5-yl}phenyl)methoxy]cyclopentyl}-5-(1-methyl-1H-pyrazol-4-yl)pyridine-3-carboxamide], the IC50 at human AXL (473-end) (setting [2]) was below 10 nM; against human AXL (473-end) (in vitro), below 10 nM; on human MER (528-end) (setting [3]), below 10 nM; on human MER (528-end) (in vitro, read-out: HTRF MerTK IC50), below 10 nM; at human TYRO3 (455-end) it was below 10 nM. In addition, the “% inhibition” value in assay [1] is 58%. In addition, in assay [1] (as shown in Tables 3 and 4: 50 milligrams per kilogram), the “% inhibition in the in vivo Ba/F3 pMer ALISA Assay” value is 58%.

For the compound `Nc1ncc(-c2cccnc2F)cc1C(=O)N[C@H]1CCC[C@@H]1OCc1ccc(-c2ccc3c(c2)CCC[C@@H]3N2CCN(CCO)CC2)cc1` [Example 165, 6-amino-2′-fluoro-N-{(1S,2S)-2-[(4-{(5S)-5-[4-(2-hydroxyethyl)piperazin-1-yl]-5,6,7,8-tetrahydronaphthalen-2-yl}phenyl)methoxy]cyclopentyl}[3,3′-bipyridine]-5-carboxamide], the IC50 at human AXL (473-end) (setting [2]), on human MER (528-end) (setting [3]) and on human TYRO3 (455-end) was below 10 nM throughout. Further, the “% inhibition” value in assay [1] amounted to 92%.

Regarding `CN1CCN([C@H]2CC(C)(C)c3cc(-c4ccc(CO[C@H]5CCC[C@@H]5NC(=O)c5cc(-c6cnn(C)c6)cnc5N)cc4)ccc32)CC1` [Example 144, 2-amino-N-[(1S,2S)-2-({4-[(1S)-3,3-dimethyl-1-(4-methylpiperazin-1-yl)-2,3-dihydro-1H-inden-5-yl]phenyl}methoxy)cyclopentyl]-5-(1-methyl-1H-pyrazol-4-yl)pyridine-3-carboxamide], the IC50 at human AXL (473-end) (setting [2]), on human MER (528-end) (setting [3]) and at human TYRO3 (455-end) was below 10 nM each time. Also, the “% inhibition” value in assay [1] worked out at 93%.

Consider `CC1(C)C[C@H](N2CCN(CCO)CC2)c2ccc(-c3ccc(CO[C@H]4CCC[C@@H]4NC(=O)c4cc(-c5cccnc5F)cnc4N)cc3)cc21` [Example 159, 6-amino-2′-fluoro-N-{(1S,2S)-2-[(4-{(1S)-1-[4-(2-hydroxyethyl)piperazin-1-yl]-3,3-dimethyl-2,3-dihydro-1H-inden-5-yl}phenyl)methoxy]cyclopentyl}[3,3′-bipyridine]-5-carboxamide], for which the IC50 is below 10 nM on human AXL (473-end) (setting [2]), below 10 nM at human MER (528-end) (setting [3]) and 10 to 100 nM on human TYRO3 (455-end). The “% inhibition” value in assay [1] is reported as 89%.

For the compound `COc1ccc(-c2cnc(N)c(C(=O)N[C@H]3CCC[C@@H]3OCc3ccc(-c4ccc5c(c4)CC[C@@H]5N4CCN(CCO)CC4)cc3)c2)cn1` [Example 151, 6-amino-N-{(1S,2S)-2-[(4-{(1S)-1-[4-(2-hydroxyethyl)piperazin-1-yl]-2,3-dihydro-1H-inden-5-yl}phenyl)methoxy]cyclopentyl}-6′-methoxy[3,3′-bipyridine]-5-carboxamide], the IC50 was below 10 nM against human AXL (473-end) (setting [2]), below 10 nM at human MER (528-end) (setting [3]) and 10 to 100 nM on human TYRO3 (455-end). Also, in assay [1], the “% inhibition” value came to 66%.

`Nc1ncc(-c2ccc(F)nc2)cc1C(=O)N[C@H]1CCC[C@@H]1OCc1ccc(-c2ccc3c(c2)CC[C@@H]3N2CCN(CCO)CC2)cc1` [Example 46, 6-amino-6′-fluoro-N-{(1S,2S)-2-[(4-{(1S)-1-[4-(2-hydroxyethyl)piperazin-1-yl]-2,3-dihydro-1H-inden-5-yl}phenyl)methoxy]cyclopentyl}[3,3′-bipyridine]-5-carboxamide]: the IC50 on human AXL (473-end) (setting [2]) was below 10 nM; at human MER (528-end) (setting [3]), below 10 nM; on human TYRO3 (455-end), 10 to 100 nM. The “% inhibition” value in assay [1] came out at 37%.

For `Nc1ncc(-c2cccnc2F)cc1C(=O)N[C@H]1CCC[C@@H]1OCc1ccc(-c2ccc3c(c2)CC[C@@H]3N2CCN3C[C@H](O)C[C@H]3C2)cc1` [Example 160, 6-amino-2′-fluoro-N-{(1S,2S)-2-[(4-{(1S)-1-[(7R,8aS)-7-hydroxyhexahydropyrrolo[1,2-a]pyrazin-2 (1H)-yl]-2,3-dihydro-1H-inden-5-yl}phenyl)methoxy]cyclopentyl}[3,3′-bipyridine]-5-carboxamide], the figures for the IC50 on human AXL (473-end) (setting [2]), on human MER (528-end) (setting [3]) and on human TYRO3 (455-end) were below 10 nM, below 10 nM and 10 to 100 nM, respectively. Moreover, the “% inhibition” value in assay [1] came to 75%.

Consider `CN1CCN([C@H]2CCCc3cc(-c4ccc(CO[C@H]5CCC[C@@H]5NC(=O)c5cc(-c6cnn(C)c6)cnc5N)cc4)ccc32)CC1` [Example 164, 2-amino-N-[(1S,2S)-2-({4-[(5S)-5-(4-methylpiperazin-1-yl)-5,6,7,8-tetrahydronaphthalen-2-yl]phenyl}methoxy)cyclopentyl]-5-(1-methyl-1H-pyrazol-4-yl)pyridine-3-carboxamide], for which the IC50 against human AXL (473-end) (setting [2]), on human MER (528-end) (setting [3]) and at human TYRO3 (455-end) was below 10 nM throughout. Further, in assay [1], the “% inhibition” value turned out to be 89%.

In the case of `Cn1cc(-c2cnc(N)c(C(=O)N[C@H]3CCC[C@@H]3OCc3ccc(-c4ccc5c(c4)C(C)(C)C[C@@H]5N4CCN(C[C@H](O)CO)CC4)cc3)c2)cn1` [Example 169, 2-amino-N-[(1S,2S)-2-({4-[(1S)-1-{4-[(2S)-2,3-dihydroxypropyl]piperazin-1-yl}-3,3-dimethyl-2,3-dihydro-1H-inden-5-yl]phenyl}methoxy)cyclopentyl]-5-(1-methyl-1H-pyrazol-4-yl)pyridine-3-carboxamide], the IC50 against human AXL (473-end) (setting [2]), at human MER (528-end) (setting [3]) and on human TYRO3 (455-end) was below 10 nM throughout. The “% inhibition” value in assay [1] is reported as 76%.
